Experimental data: ChEMBL document CHEMBL1149215, “Chemoenzymatic synthesis and binding affinity of novel (R)- and (S)-3-aminomethyl-1-tetralones, potential atypical antipsychotics” (Bioorg Med Chem Lett, 2004)
pKi: −log10 of the molar value.

Columns and labels:
[1] = target: 5-hydroxytryptamine receptor 2A (Homo sapiens, UniProt P28223)
Description: Binding affinity towards serotonin 5-hydroxytryptamine 2A receptor

[2] = target: T1, 5-hydroxytryptamine receptor 2C (Homo sapiens, UniProt P28335)
T1 sequence (P28335 whole entry): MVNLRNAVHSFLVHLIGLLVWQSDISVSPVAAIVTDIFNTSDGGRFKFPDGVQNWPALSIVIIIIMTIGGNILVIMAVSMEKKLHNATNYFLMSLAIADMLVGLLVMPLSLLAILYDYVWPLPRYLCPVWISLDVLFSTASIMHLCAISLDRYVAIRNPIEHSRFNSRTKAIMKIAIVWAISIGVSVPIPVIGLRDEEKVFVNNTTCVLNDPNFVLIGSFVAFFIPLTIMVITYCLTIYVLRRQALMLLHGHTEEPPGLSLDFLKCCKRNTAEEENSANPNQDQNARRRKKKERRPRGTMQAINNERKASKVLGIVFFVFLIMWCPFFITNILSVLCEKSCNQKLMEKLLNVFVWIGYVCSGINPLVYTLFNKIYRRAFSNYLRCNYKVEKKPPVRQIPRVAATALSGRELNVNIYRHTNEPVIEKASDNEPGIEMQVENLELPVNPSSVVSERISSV
Description: Binding affinity towards serotonin 5-hydroxytryptamine 2C receptor

Chain of 5-hydroxytryptamine receptor 2A (P28223 whole entry): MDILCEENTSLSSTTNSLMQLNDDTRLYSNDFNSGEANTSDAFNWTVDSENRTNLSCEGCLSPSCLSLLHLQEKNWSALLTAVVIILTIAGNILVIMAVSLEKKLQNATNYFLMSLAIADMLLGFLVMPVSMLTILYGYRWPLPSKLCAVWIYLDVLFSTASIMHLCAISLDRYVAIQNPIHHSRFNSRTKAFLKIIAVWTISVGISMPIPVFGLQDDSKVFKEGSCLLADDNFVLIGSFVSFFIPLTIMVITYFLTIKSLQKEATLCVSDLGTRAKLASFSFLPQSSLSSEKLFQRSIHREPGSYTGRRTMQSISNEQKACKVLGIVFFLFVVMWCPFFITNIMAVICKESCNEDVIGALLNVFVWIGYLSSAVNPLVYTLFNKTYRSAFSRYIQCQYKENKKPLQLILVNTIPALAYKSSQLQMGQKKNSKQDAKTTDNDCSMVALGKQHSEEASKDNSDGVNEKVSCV

Compound | pKi [1] | pKi [2]
COc1cc2c(cc1OC)C(=O)CC(CN1CCN(c3ccccn3)CC1)C2 (racemic) | 6.18 | < 5.00
O=C1CC(CN2CCN(c3ccccn3)CC2)Cc2ccccc21 (racemic) | 6.01 | 5.48
COc1cc2c(cc1OC)C(=O)CC(CN1CCC(c3noc4cc(F)ccc34)CC1)C2 (racemic) | 8.02 | 
COc1ccc2c(c1)CC(CN1CCN(c3ccccc3OC)CC1)CC2=O (racemic) | 6.05 | 7.33
O=C1CC(CN2CCC(c3noc4cc(F)ccc34)CC2)Cc2ccccc21 (racemic) | 8.57 | 6.89
COc1cc2c(cc1OC)C(=O)CC(CN1CCN(c3ccccc3OC)CC1)C2 (racemic) | 5.63 | < 5.00
COc1ccccc1N1CCN(CC2CC(=O)c3ccccc3C2)CC1 (racemic) | 6.29 | 
COc1ccc2c(c1)CC(CN1CCN(c3ccccn3)CC1)CC2=O (racemic) | 6.16 | 5.34
COc1ccc2c(c1)CC(CN1CCC(c3noc4cc(F)ccc34)CC1)CC2=O (racemic) |  | 5.79
COc1ccc2c(c1)CC(CN1CCC(c3noc4cc(F)ccc34)CC1)CC2=O (single isomer, unassigned; (+)) | 8.83 | 6.29
COc1ccc2c(c1)CC(CN1CCC(c3noc4cc(F)ccc34)CC1)CC2=O (single isomer, unassigned; (-)) | 7.58 | 6.08
O=C1CC(CN2CCC(c3noc4cc(F)ccc34)CC2)Cc2ccccc21 (stereo in doubt; (+)-7d) | 7.53 | 6.18
COc1cc2c(cc1OC)C(=O)CC(CN1CCC(c3noc4cc(F)ccc34)CC1)C2 (stereo in doubt; (-)-9d) | 8.14 | 

More lines, now with the values ahead:

pKi [1] | pKi [2] | Compound
7.75 | 5.93 | COc1ccc2c(c1)CC(CN1CCC(C(=O)c3ccc(F)cc3)CC1)CC2=O (racemic)
8.22 | 7.08 | COc1cc2c(cc1OC)C(=O)CC(CN1CCC(C(=O)c3ccc(F)cc3)CC1)C2 (racemic)
7.88 | 6.30 | O=C1CC(CN2CCC(C(=O)c3ccc(F)cc3)CC2)Cc2ccccc21 (racemic)
7.95 | 5.96 | COc1ccc2c(c1)CC(CN1CCC(C(=O)c3ccc(F)cc3)CC1)CC2=O (single isomer, unassigned; (+))
7.36 | 6.24 | COc1cc2c(cc1OC)C(=O)CC(CN1CCC(C(=O)c3ccc(F)cc3)CC1)C2 (single isomer, unassigned; (+))
7.79 | 6.01 | COc1ccc2c(c1)CC(CN1CCC(C(=O)c3ccc(F)cc3)CC1)CC2=O (single isomer, unassigned; (-))
8.25 | 6.78 | COc1cc2c(cc1OC)C(=O)CC(CN1CCC(C(=O)c3ccc(F)cc3)CC1)C2 (single isomer, unassigned; (-))
7.63 | 6.31 | O=C1CC(CN2CCC(C(=O)c3ccc(F)cc3)CC2)Cc2ccccc21 (stereo in doubt; (+)-7c)
8.23 | 6.11 | O=C1CC(CN2CCC(C(=O)c3ccc(F)cc3)CC2)Cc2ccccc21 (stereo in doubt; (-)-7c)
8.20 | 6.08 | O=C1CC(CN2CCC(c3noc4cc(F)ccc34)CC2)Cc2ccccc21 (stereo in doubt; (-)-7d)
